Data published in PubChem BioAssay (NCI).
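The compound was tested at five concentrations on cells cultured in 96-well plates, with a 48-hour exposure period. TGI: total growth inhibition.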

Key:
Test in all cases: inhibition of tumour cell growth, NCI panel, 48 h
SNB-75 CNS = system: SNB-75 CNS
NCI-H226 lung = system: NCI-H226 lung
MDA-N = system: MDA-N
UACC-62 melanoma = system: UACC-62 melanoma
MOLT-4 leukemia = system: MOLT-4 leukemia
SN12C renal = system: SN12C renal
OVCAR-3 ovarian = system: OVCAR-3 ovarian
BT-549 breast = system: BT-549 breast
ACHN renal = system: ACHN renal
HCT-15 colon = system: HCT-15 colon
HCC-2998 colon = system: HCC-2998 colon
OVCAR-8 ovarian = system: OVCAR-8 ovarian

| Structure (SMILES) | TGI (SNB-75 CNS) [µM] | TGI (NCI-H226 lung) [µM] | TGI (MDA-N) [µM] | TGI (UACC-62 melanoma) [µM] | TGI (MOLT-4 leukemia) [µM] | TGI (SN12C renal) [µM] | TGI (OVCAR-3 ovarian) [µM] | TGI (BT-549 breast) [µM] | TGI (ACHN renal) [µM] | TGI (HCT-15 colon) [µM] | TGI (HCC-2998 colon) [µM] | TGI (OVCAR-8 ovarian) [µM] |
| --- | --- | --- | --- | --- | --- | --- | --- | --- | --- | --- | --- | --- |
| Nc1ncc(Cl)c(NCC2(CO)CC(CCc3ccccc3)C2)n1 (stereo not drawn) | 99.4 | > 100 | > 100 | > 100 | > 100 | > 100 | > 100 | > 100 | > 100 | > 100 | > 100 | > 100 |
| O=C(Nc1c(C(F)(F)F)cc(-c2ccccc2)[nH]c1=O)N1CCOCC1 | > 100 | > 100 | > 100 | > 100 | > 100 | > 100 | > 100 | > 100 | > 100 | > 100 | > 100 | > 100 |
| O=C(Nc1cc2c(=O)oc3ccccc3c2oc1=O)c1cccnc1 | > 100 | > 100 | > 100 | > 100 | > 100 | > 100 | > 100 | > 100 | > 100 | > 100 | > 100 | > 100 |
| CC(C)(C)OC(=O)N(O)CCCn1cnc2c(N)ncnc21 | > 100 | > 100 | > 100 | > 100 | > 100 | > 100 | > 100 | > 100 | > 100 | > 100 | > 100 | > 100 |
| Cc1ccc2c(n1)C(=O)C=CC2=O | 38.2 | 42.8 | 20.3 | 29.2 | > 24 | 29.8 | 8.54 | 31.5 | 8.63 | 26.3 | 33.5 | 33.7 |
| COc1cc(C(=O)O[C@@H]2[C@@H](OC(=O)c3cc(OC)c(OC)c(OC)c3)[C@@H](OC)O[C@@H]3CO[C@@H](c4ccccc4)O[C@@H]23)cc(OC)c1OC | > 100 | > 100 | > 100 | > 100 | > 100 | > 100 | > 100 | > 100 | > 100 | > 100 | > 100 | > 100 |
| Brc1c(C#CCC(c2ccccc2)(c2ccccc2)c2ccccc2)ccc(C#CCC(c2ccccc2)(c2ccccc2)c2ccccc2)c1Br | > 100 | > 100 | > 100 | > 100 | > 100 | > 100 | > 100 | > 100 | > 100 | > 100 | > 100 | > 100 |
| Cc1nn(C(=O)c2ccncc2)c2c1C(c1ccccc1)SC(N)=N2 (stereo not drawn) | > 10 | > 10 | > 10 | > 10 | > 10 | > 10 | > 10 | > 10 | > 10 | > 10 | > 10 | > 10 |
| CCOC(=O)C(C(=O)c1ccccc1C(=O)OC)=P(c1ccccc1)(c1ccccc1)c1ccccc1 | > 10 | > 10 | > 10 | > 10 | > 10 | > 10 | > 10 | > 10 | > 10 | > 10 | > 10 | > 10 |
